One data set has as its target murine iNOS (Mus musculus (Mouse), UniProt P29477). Description: In vitro purified enzyme assay (hemoglobin capture), iNOS. The data set is classed as biochemical. The note with it: for Ki: calculated from directly measured IC50 (Cheng-Prusoff), murine iNOS; for selectivity n/i: ratio of Ki (iNOS) to Ki (nNOS). The protocol: (§1) The three NOS isoforms, rat nNOS, murine iNOS and bovine eNOS were recombinant enzymes overexpressed in E. coli and purified as reported in the literature. (See, e.g., example 51 of the aforementioned incorporated '790 patent and the references cited therein.) The hemoglobin capture was used to measure nitric oxide production. (See, Hevel, J. M. and Marietta, M. A. Nitric Oxide Synthase Assays. Methods Enzymol. 1994, 133, 250-258.) Briefly, the assay was run at 37° C. in 100 mM HEPES buffer (10% glycerol; pH 7.4) in the presence of 10 μM L-arginine. The following NOS cofactors were also included in the assay: 100 μM NADPH, 10 μM tetrahydrobiopterin, 1 mM CaCl2, 11.6 μg/mL calmodulin and 3.0 μM oxyhemoglobin. For iNOS, calmodulin and CaCl2 were omitted. The assay was run in a high throughput manner, using the Synergry 4 by BioTek, at the Northwestern University HighThroughput Analysis Facility. The assay was run in triplicate; 48 100 uL reactions were ran at once in a 96 well plate. The addition of hemoglobin and NOS were automated with a maximum of a 30 second delay before the reactions could be recorded at 401 nm. The absorbance increase at 401 nm is due to the formation of NO via the conversion of oxyhemoglobin to methemoglobin.
(§2) The IC50 values were obtained using non-linear regression in GraphPad Prism5 software.

A further data set addresses bovine eNOS (Bos taurus (Bovine), UniProt P29473). Put plainly: In vitro purified enzyme assay (hemoglobin capture), eNOS. The note with it: for Ki: calculated from directly measured IC50 (Cheng-Prusoff), bovine eNOS; for selectivity n/e: ratio of Ki (eNOS) to Ki (nNOS). The data set is classed as biochemical. The protocol:
as §1, §2

The target in data set [1] is HEK293t cells stably transfected with rat nNOS (Rattus norvegicus (Rat), UniProt P29476). Put plainly: nNOS cell-based assay (nitrite production, Griess reagent). As to conditions: for Relationship (fold higher in cells): cell-based IC50 versus in vitro IC50; for IC50: inhibition of nitric oxide production in HEK293t cells stably expressing nNOS. The procedure:
HEK293t cells stably transfected with rat nNOS were cultured as previously described, and the nNOS inhibition assay was performed as previously reported (Fang, J.; Silverman, R. B. A cellular model for screening neuronal nitric oxide synthase inhibitors. Analytical Biochemistry 2009, 390, 74-78), with the following modifications: assays were performed in 96-well plates with a total volume of 100 μL, and 10 μM A23187 (Sigma Aldrich, St Louis, Mo., USA) in 50% DMSO was used in place of 5 μM. Nine concentrations of each inhibitor were tested, in at least triplicate wells. All inhibitors were assayed within the same experiment to assure consistencies in cell concentration and passage number. The entire assay was repeated at least twice for each inhibitor, and the IC50 values averaged. After 6 hours of activation (in the presence or absence of inhibitor, which was added 30 minutes before activation) 50 μL aliquots of the media were removed and nitrite production was quantified using Griess reagent. (See, Hevel, J. M.; White, K. A.; Marietta, M. Purification of the inducible murine macrophage nitric oxide synthase. Identification as a flavoprotein. J. Biol. Chem. 1991, 266, 22789-22791.)

The target of the next data set is rat nNOS (Rattus norvegicus (Rat), UniProt P29476). Description: In vitro purified enzyme assay (hemoglobin capture), nNOS. As to conditions: for Ki: calculated from directly measured IC50 (Cheng-Prusoff), rat nNOS; for IC50: purified enzyme assay. The format is biochemical. The procedure: as §1, §2
The conditions of data set [2]: animal test results; cited from earlier work.
For data set [3] the following is noted: cited from earlier work.

The Ki is the dissociation constant of the complex between target and ligand, obtained from inhibition or displacement. One may read the IC50 as the midpoint of a concentration-inhibition curve. For `COc1ccccc1CNCCO[C@@H]1CNC[C@@H]1Cc1cc(C)cc(N)n1` [Compound 3b, 6-(((3S,4S)-4-(2-(2-Methoxybenzylamino)ethoxy)pyrrolidin-3-yl)methyl)-4-methylpyridin-2-amine], at murine iNOS, the Ki is 114 µM and the selectivity n/i stood at 139. In addition, at bovine eNOS, the Ki is 77 µM and the selectivity n/e is given as 93. In addition, in data set [1], the “Relationship (fold higher in cells)” value is 27 x and half-maximal inhibition (IC50) was put at 190 µM. In addition, on rat nNOS, the Ki is 0.82 µM and the IC50 came out at 7.1 µM.

As to `Cc1cc(N)nc(C[C@H]2CNC[C@H]2OCCNCc2ccccc2O)c1` [Compound 3c, 2-((2-((3S,4S)-4-((6-Amino-4-methylpyridin-2-yl)methyl)pyrrolidin-3-yloxy)ethylamino)methyl)phenol], on murine iNOS, the Ki was 57 µM and the selectivity n/i was 143. At bovine eNOS, the inhibition constant Ki was 37 µM and the selectivity n/e is 93. In data set [1], the “Relationship (fold higher in cells)” value was 150 x and it took 520 µM to reach half-maximal inhibition (IC50). At rat nNOS, the inhibition constant Ki is 0.39 µM and the IC50 amounted to 3.5 µM.

Take `Cc1cc(C[C@H]2CN(C(=O)OC(C)(C)C)C[C@H]2OCC=O)nc(N(C(=O)OC(C)(C)C)C(=O)OC(C)(C)C)c1` [Compound 2, reference compound]: the BBB penetration result in data set [2] is recorded as “do not penetrate the BBB”. In addition, in data set [1], the “Relationship (fold higher in cells)” value was found to be 125 x and the IC50 was 125 µM. At rat nNOS, the IC50 is 1 µM.

Take `C=CCO[C@@H]1CN(C(=O)OC(C)(C)C)C[C@@H]1Cc1cc(C)cc(N(C(=O)OC(C)(C)C)C(=O)OC(C)(C)C)n1` [Compound 1, reference compound]: in data set [2], the BBB penetration result was “do not penetrate the BBB”. Moreover, in data set [1], the “Relationship (fold higher in cells)” value is 722 x and the half-inhibitory concentration (IC50) stood at 325 µM. Besides, the IC50 on rat nNOS was found to be 0.45 µM.

Consider `Cc1cc(N)nc(C[C@H]2CNC[C@H]2OCCNCc2ccco2)c1` [Compound 3d, 6-(((3S,4S)-4-(2-(Furan-2-ylmethylamino)ethoxy)pyrrolidin-3-yl)methyl)-4-methylpyridin-2-amine], for which, at murine iNOS, the inhibition constant (Ki) is 36 µM and the selectivity n/i was found to be 92. At bovine eNOS, the inhibitory constant (Ki) is 66 µM and the selectivity n/e came to 169. In data set [1], the “Relationship (fold higher in cells)” value came to 123 x and the IC50 worked out at 420 µM. On rat nNOS, the Ki is 0.4 µM and the IC50 was 3.4 µM.

In the case of `Cc1cc(N)nc(C[C@H]2CNC[C@H]2OCCNCc2ccccc2F)c1` [Compound 3a, 6-(((3S,4S)-4-(2-(2-Fluorobenzylamino)ethoxy)pyrrolidin-3-yl)methyl)-4-methylpyridin-2-amine], on murine iNOS, the Ki is 44 µM and the selectivity n/i is reported as 105. Further, on bovine eNOS, the Ki is 40 µM and the selectivity n/e is listed as 98. For the same molecule, in data set [1], the “Relationship (fold higher in cells)” value turned out to be 33 x and 120 µM corresponded to half-maximal inhibition (IC50). For the same molecule, at rat nNOS, the Ki was 0.41 µM and the half-maximal inhibitory concentration (IC50) worked out at 3.6 µM.

One may read the pKa as the negative logarithm of the acid dissociation constant. For the molecule `CNc1cc(N)nc(NC)c1.Cl` [Aminopyridine, 2-amino-4,6-dimethylaminopyridine hydrochloride, reference compound], the pKa in data set [3] is recorded as approximately 7. Also, in data set [1], the “Relationship (fold higher in cells)” value is 500x. The IC50 at rat nNOS worked out at 0.05 µM.

The values above are taken from patent publication US8927730B2, “Intramolecular hydrogen-bonded nitric oxide synthase inhibitors” (Northwestern University, priority 2010, dated 2015).
